Reference: publication PMC8218751, “Visualizing Borrelia burgdorferi Infection Using a Small-Molecule Imaging Probe” (Journal of Clinical Microbiology, 2021)

Assays:
B. burgdorferi HtpG = target: T1, B. burgdorferi HtpG (Borreliella burgdorferi, UniProt P42555); assay: biochemical; assay type: binding, Borrelia burgdorferi
T1 construct: His6 (N); made in house; host or cells: E. coli BL21(DE3)
Procedure: Escherichia coli (strain BL21/DE3) genomic DNA was isolated from a lab culture generated from the cloning/expression bacterium (ThermoFisher catalog no. EC0114) by overnight proteinase K digestion at 56°C, high-salt clarification, and ethanol precipitation. […] Human Hsp90-alpha sequences were derived from cDNA generated from total mRNA of the human breast epithelial line, MCF10A. HtpG DNA sequences were PCR cloned from these DNAs using primers designed to allow in-frame cloning with GFP in the isopropyl-β-D-thiogalactopyranoside (IPTG)-inducible bacterial expression vector. […] Fusion protein cloning was done using the ligation-independent cloning procedure via single-nucleotide T4 DNA polymerase treatment of vector and purified PCR products followed by annealing of complementary single-strand ends before transformation into DH5 E. coli. […] Fusion protein synthesis was induced by incubation with 1 mM IPTG or autoinduction ([17]).
γ-linked ATP Sepharose matrix was generated as described previously by the Haystead lab ([18]). […] The clarified lysate was added to a column containing ATP-bound Sepharose. The column was washed with low-salt buffer (150 mM NaCl, 25 mM HEPES, pH 7.4, 1 mM dithiothreitol [DTT], and 60 mM MgCl2), followed by high-salt buffer (1 M NaCl, 25 mM HEPES, pH 7.4, 1 mM DTT, 0.1% IGEPAL, and 60 mM MgCl2) and once again low-salt buffer to remove unbound protein. Next, the resin with bound proteins (50 μl) was transferred to a 0.2-μm polyvinylidene fluoride filter 96-well plate (Corning) sitting on top of a black flat-bottomed 96-well catch plate (Corning). […] The eluted proteins were measured in a fluorescent plate reader to detect the GFP.
Subtle single amino acid differences are present within the catalytic clefts of these proteins, especially between residues that contact the nucleotide. […] We therefore reasoned that these differences may be sufficient to design small molecules that can similarly discriminate HtpG of stealth organisms. To test this hypothesis, we utilized a fluorescent-linked enzyme chemoproteomic strategy (FLECS) assay to test known Hsp90 inhibitors ([18]) for binding to various HtpG constructs. First, we cloned and expressed in E. coli recombinant N-terminal GFP-fusion forms of HtpG from B. burgdorferi, E. coli, and Treponema denticola, the oral spirochete, as well as human Hsp90. We then incubated lysate after protein expression with an ATP Sepharose resin to enable binding. In this assay, ATP is tethered to Sepharose beads via its γ-phosphate, enabling the nucleotide to bind to ATP binding proteins such as Hsp90 and HtpG, but is nonhydrolyzable ([24]). After proteins are bound to the ATP Sepharose resin, small molecules with affinity for the ATP binding site will elute the GFP-fusion protein, which can readily be detected and quantified on a plate fluorometer.
These compounds were selected for testing based on their known binding to human Hsp90 ([25], [26]).

B. burgdorferi [1] = assay: In vivo mouse model of B. burgdorferi infection, imaging of tissue sections; set-up: species or system mice; settings: 25 nmol via tail vein, 3 weeks after infection, 6 h postinjection; ear, tibiotarsal joint, spleen
Procedure: Ten-micrometer sections of frozen tissues were incubated with WGA (Biotium catalog number 29077) for 1 h in PBS. Tissues were washed and fixed with 3:1 methanol to acetic acid. Slides were incubated with FITC-conjugated B. burgdorferi polyclonal antibody (ThermoFisher, catalog number PA1-73005) for 1 h at room temperature. Noninjected or infected tissues were washed and incubated with 1 μM HS-198 for 30 min as control, and injected tissues were not incubated with HS-198. Slides were washed and mounted with DAPI Prolong Gold. Image studies were performed on a Zeiss Axio Imager upright microscope, using 63× oil objective, and visible light for DIC imaging and excitation at 405, 488, or 633 nm for detection of DAPI, FITC, or HS-198, respectively. Images were analyzed using FIJI software.
Seven C3H/HeN (Charles River Laboratories) female mice, 36 to 42 days old, were anesthetized with isoflurane gas, 1.5 to 2%. Mice were infected with 500,000 logarithmic-stage B. burgdorferi strain N40 spirochetes in <0.5 ml sterile saline by subcutaneous injection in the nape of the neck via 25-gauge needle. The N40 strain was selected for its infection kinetics and inflammatory pathology. The strain was obtained from an archival stock acquired by the Philip lab and was maintained exactly like strain B31 ([21]). […]

B. burgdorferi [2] = assay: Fixed or denatured B. burgdorferi imaging, flagellin costaining and CLEM; assay type: cell-based, Borrelia burgdorferi
Procedure: Bacterial cultures in logarithmic phase were washed and resuspended in phosphate-buffered saline (PBS). Suspension was added to a positively charged slide, and an equal volume of 3:1 methanol-acetic acid was added to the suspension for 5 min. Slides were washed with 0.01% Tween 20/PBS (PBS-T) followed by PBS. Ten percent nonfat dry milk/PBS blocking solution was added for 45 min. Slides were washed with PBS and incubated for 45 min with 1:500 flagellin antibody (Rockland 200-401-C14) diluted in 1% nonfat dry milk/PBS. Slides were washed with PBS-T and then incubated for 30 min with FITC-conjugated anti-rabbit (Invitrogen catalog number A11008; 1:500 dilution), containing 10 μM HS-198. […].
Correlative light electron microscopy (CLEM) was performed by Shannon Modla and Jeff Caplan at the bioimaging center of the Delaware Biotechnology Institute. Cells were attached to an Ibidi μ-dish containing an imprinted 500-μm cell location grid using 4% paraformaldehyde (PFA) for 20 min. Cells were then incubated with 10 μM HS-198 for 10 min followed by a PBS wash. PBS filled the dish to the top for transport to the Delaware Institute for further processing. The cells were then imaged using Zeiss 880 Airyscan. […]

T1 sequence (P42555 whole entry): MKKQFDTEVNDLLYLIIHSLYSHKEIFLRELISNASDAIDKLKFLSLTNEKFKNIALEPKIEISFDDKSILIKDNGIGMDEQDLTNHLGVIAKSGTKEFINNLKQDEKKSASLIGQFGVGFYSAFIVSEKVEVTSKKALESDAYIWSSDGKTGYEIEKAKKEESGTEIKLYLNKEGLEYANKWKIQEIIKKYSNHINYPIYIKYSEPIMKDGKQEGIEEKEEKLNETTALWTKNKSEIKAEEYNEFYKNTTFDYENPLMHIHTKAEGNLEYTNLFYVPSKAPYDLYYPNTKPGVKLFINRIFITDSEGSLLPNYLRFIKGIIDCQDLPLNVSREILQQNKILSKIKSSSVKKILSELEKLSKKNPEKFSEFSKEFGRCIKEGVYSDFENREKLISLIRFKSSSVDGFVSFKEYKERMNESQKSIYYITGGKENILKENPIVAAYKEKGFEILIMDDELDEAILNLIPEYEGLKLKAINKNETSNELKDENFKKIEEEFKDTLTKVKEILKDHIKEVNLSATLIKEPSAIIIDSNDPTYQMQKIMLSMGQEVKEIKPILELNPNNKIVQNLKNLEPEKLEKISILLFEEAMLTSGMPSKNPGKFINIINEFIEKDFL

Cc1nn(-c2ccc(C(=O)N(C)C)c(NCCCOCCOCCOCCOCCOCCCNCc3ccc(C(=C\C=C4/N(CCCCS(=O)(=O)O)c5ccccc5C4(C)C)/C=C/C4=[N+](CCCCS(=O)(=O)[O-])c5ccccc5C4(C)C)cc3)c2)c2c1C(=O)CC(C)(C)C2 [HS-198]
Kd (B. burgdorferi HtpG): 5.6 ± 3 µM | Elution of B. burgdorferi GFP-HtpG from ATP Sepharose beads (B. burgdorferi HtpG; in words): selectively eluted the bound fusion protein | Detection of B. burgdorferi in tissue sections of infected mice (B. burgdorferi [1]): localization to sites of B. burgdorferi infection in mice | Localization within the spirochete (B. burgdorferi [2]; 10 μM, flagellin antibody costaining, CLEM): accumulated inside the protoplasmic cylinder | Staining of denatured spirochetes (B. burgdorferi [2]; heat denaturation (5 min at 90°C or 15 min at 50°C) or alcohol fixation (2:1 ethanol), data not shown): capable of staining spirochetes
